Measured values published in article PMC9290910, “Neuropilin‐1 is required for endothelial cell adhesion to soluble vascular endothelial growth factor receptor 1” (The Febs Journal, 2021).
Entries after “also recorded” stand apart in the source; their conditions may differ.

How the values were obtained:
[1] = tested on: EC (HUVEC) adhesion to sVEGFR‐1; experiment: Cell adhesion assay, EC adhesion to sVEGFR‐1; format: cell-based, human; details: for effect on EC adhesion to sVEGFR‐1: peptide 20 µg·mL^−1 during adhesion, 37 °C, 1 h, 20 µg·mL^−1 VEGFR‐1/Fc coating, crystal violet, 540 nm, triplicate
Protocol: (§1) Human umbilical vein endothelial cells (HUVEC) were isolated from freshly delivered umbilical cords, as previously described, cultured in Endothelial Cell Growth Medium‐2 Kit from Clonetics (EGM‐2, CC4176, Lonza, Basel, Switzerland), and used up to passage 6. For functional assays, HUVEC were resuspended in Endothelial Basal Medium‐2 (EBM‐2, CC3156, Lonza). A pool of cells derived from four different individuals was used.
(§2) Solid support for adhesion assay was prepared by incubating immunological 96‐multiwell plates with 20 µg·mL^−1 VEGFR‐1/Fc chimera, or fibronectin solubilized in PBS. After 2 h, the coating solution was removed, and the well surface was blocked with 3% BSA in PBS for 18 h, before plating ECs in serum‐free medium at 3 × 10^4 cells per well. After incubation at 37 °C for 1 h, the wells were washed with PBS and attached cells were fixed with 3% formaldehyde and stained with 0.5% crystal violet. Attachment efficiency was determined by quantitative dye extraction and spectrophotometric measurement of the absorbance at 540 nm, using a Microplate reader 3550‐UV (Bio‐Rad). In competition experiments, peptides Flt2‐11, scrambled Flt2‐11, Flt2‐8 or Flt2‐5, at 20 µg·mL^−1, were added during the adhesion assay. Adhesion to peptide 12 was carried out by using maleic anhydride activated microplates (Reacti‐Bind, Pierce, Rockford, IL, USA) coated with 500 µg·mL^−1 of the peptide.

[2] = tested on: EC (HUVEC) adhesion to fibronectin; experiment: Cell adhesion assay, EC adhesion to fibronectin; format: cell-based, human
Protocol: as §1, §2

[3] = biological target: T1, NRP‐1/VEGFR‐1 interaction (Homo sapiens, UniProt O14786); experiment: SPR, inhibition of NRP‐1/VEGFR‐1 interaction; format: binding; details: in words, NRP‐1 immobilized, VEGFR‐1 5 nM
T1 construct: purchased R&D Systems 3870-N1 (NRP-1); 321-FL-050 (VEGFR-1/Fc)
T1 sequence (O14786 22-644 isoform O14786-2 limits assumed): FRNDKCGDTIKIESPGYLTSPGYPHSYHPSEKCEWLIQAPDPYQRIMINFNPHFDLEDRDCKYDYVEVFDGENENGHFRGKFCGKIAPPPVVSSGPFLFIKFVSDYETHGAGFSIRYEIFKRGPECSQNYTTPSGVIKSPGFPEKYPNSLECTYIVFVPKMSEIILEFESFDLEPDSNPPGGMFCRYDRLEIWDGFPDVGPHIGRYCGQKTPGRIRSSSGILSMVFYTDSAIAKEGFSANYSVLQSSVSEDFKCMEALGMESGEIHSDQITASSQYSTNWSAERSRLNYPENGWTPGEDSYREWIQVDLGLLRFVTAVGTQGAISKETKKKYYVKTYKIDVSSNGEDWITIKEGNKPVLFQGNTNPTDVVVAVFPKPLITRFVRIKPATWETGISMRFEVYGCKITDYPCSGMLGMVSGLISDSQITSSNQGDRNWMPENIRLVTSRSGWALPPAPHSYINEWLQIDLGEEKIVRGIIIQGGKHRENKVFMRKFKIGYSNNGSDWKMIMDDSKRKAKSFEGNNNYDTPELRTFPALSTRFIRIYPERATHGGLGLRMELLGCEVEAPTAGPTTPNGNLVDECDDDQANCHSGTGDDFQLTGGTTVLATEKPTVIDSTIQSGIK
Protocol: Fig. 2 Flt2‐11 peptide inhibits NRP‐1 binding to VEGFR‐1. SPR analysis of the interaction between VEGFR‐1 and NRP‐1 in peptide absence (A), or presence of Flt2‐11 peptide (B) or scrambled Flt2‐11 peptide (C). NRP‐1 is immobilized on the sensor chip. (A) VEGFR‐1 is injected at different concentrations (from bottom to top: 0.6 nM, cyan; 1 nM, red; 2 nM, green; 2.5 nM, blue; and 5 nM, black). […] (B) VEGFR‐1 is injected at 5 nM together with peptide Flt2‐11 at different concentrations (from top to bottom: 0, black; 5 nM, blue; 15 nM, green; 45 nM, red; 100 nM, cyan; and 800 nM, magenta). […] (C) VEGFR‐1 is injected at 5 nM together with ‘scrambled’ Flt2‐11 peptide at different concentrations (from top to bottom: 0, black; 0.5 μM, blue; 950 μM, geen; and […], red).
SPR experiments were carried out using a BIACORE X system (Biacore AB, Uppsala, Sweden). […] The reaction was carried out in 20 mM sodium acetate at pH 5.0, which is about 2 points below the theoretical NRP‐1 isoelectric point calculated using the program pI‐tool. […]
RU express the mass concentration‐dependent changes in the observed SPR signal, that is, the refractive index on the sensor chip surface. Changes in this signal are determined by the interaction between the immobilized protein (i.e., either NRP‐1 or VEGFR‐1) with the analyte protein (i.e., VEGFR‐1/Fc, α5β1 integrin or semaphorin 3A). […]

[4] = tested on: HUVEC migration towards sVEGFR‐1; experiment: Migration assay (Boyden chamber) towards sVEGFR‐1; format: cell-based, human; details: peptide 40 µM, 30 min preincubation; sVEGFR‐1 5 µg·mL^−1; 2 h, 37 °C; triplicate
Protocol: as §1
Cell migration was analysed using Boyden chambers equipped with 8 µm pore diameter polycarbonate filters (Nuclepore, Whatman Incorporated, Clifton, NJ, USA). Human sVEGFR‐1 stimulus (5 µg·mL^−1) for chemotaxis was added to the lower chamber and HUVEC (1.5 × 10^5) were loaded into the upper chamber. […] Cells were then loaded into the Boyden chambers without removing the peptides, and migration towards sVEGFR‐1 was analysed. […] Cells from the upper surface were removed by wiping with a cotton swab, and the chemotactic response was determined by counting the migrating cells attached to the lower surface of the filter in 12 randomly selected microscopic fields (×200 magnification) per experimental condition. Quantification was performed by two independent observers, blinded to the examined condition.

[5] = biological target: T2, Recombinant human NRP‐1 (human, UniProt O14786 22-856); experiment: SPR; competition: NRP-1 immobilised by amine coupling; protein analyte at a fixed concentration (VEGFR-1/Fc 5 nM; α5β1 integrin 200 nM; semaphorin 3A 200 nM) injected together with peptide at different concentrations; HEPES-buffered saline; details: both partners purified
T2 construct: Neuropilin-1, human, recombinant soluble protein; see the vendor's datasheet (as far as I recall an extracellular fragment with a C-terminal His tag); also called Neuropilin‐1; soluble NRP‐1; source: bought: R&D Systems (3870‐N1)
T2 sequence (looked up): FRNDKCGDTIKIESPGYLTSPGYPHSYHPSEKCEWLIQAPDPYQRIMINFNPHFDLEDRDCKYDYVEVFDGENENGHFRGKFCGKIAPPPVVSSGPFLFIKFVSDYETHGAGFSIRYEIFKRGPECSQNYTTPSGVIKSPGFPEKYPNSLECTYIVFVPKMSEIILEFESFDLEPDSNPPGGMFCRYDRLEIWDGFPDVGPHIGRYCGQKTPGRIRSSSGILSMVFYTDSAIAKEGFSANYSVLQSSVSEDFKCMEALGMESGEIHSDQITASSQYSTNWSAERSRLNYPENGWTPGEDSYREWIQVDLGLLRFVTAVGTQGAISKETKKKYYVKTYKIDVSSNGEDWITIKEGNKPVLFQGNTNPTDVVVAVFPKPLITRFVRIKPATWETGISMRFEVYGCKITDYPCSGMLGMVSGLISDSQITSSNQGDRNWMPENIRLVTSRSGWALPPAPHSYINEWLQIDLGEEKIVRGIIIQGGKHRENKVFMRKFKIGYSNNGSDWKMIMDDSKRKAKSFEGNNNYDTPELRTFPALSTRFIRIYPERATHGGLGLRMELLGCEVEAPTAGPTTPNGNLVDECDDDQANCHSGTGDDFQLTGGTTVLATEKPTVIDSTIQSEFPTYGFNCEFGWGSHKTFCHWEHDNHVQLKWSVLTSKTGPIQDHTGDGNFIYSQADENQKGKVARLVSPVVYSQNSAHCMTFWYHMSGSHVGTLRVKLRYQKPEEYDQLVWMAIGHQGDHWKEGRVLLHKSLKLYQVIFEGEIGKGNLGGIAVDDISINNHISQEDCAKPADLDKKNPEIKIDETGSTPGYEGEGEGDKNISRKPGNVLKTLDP

[6] = ECs pretreated with soluble NRP‐1

soluble NRP‐1: Recombinant human NRP‐1 (3870‐N1), R&D Systems
effect of soluble NRP‐1 on EC adhesion to sVEGFR‐1 [1, 6]: not detectably altered
effect of soluble NRP‐1 on EC adhesion to sVEGFR‐1 ([1]; soluble NRP‐1 on coated plates prior to EC addition): impaired
effect of soluble NRP‐1 on EC adhesion to fibronectin [2, 6]: not detectably altered

LVPLKIKNTFT [scrambled Flt2‐11, containing the same residues as Flt2‐11 but in a different order, reference compound]
effect on NRP‐1/VEGFR‐1 (sVEGFR‐1) interaction [3]: had no effect on NRP‐1/VEGFR‐1 interaction; also recorded: inhibits NRP‐1/VEGFR‐1 interaction only at high concentrations
effect on EC adhesion to sVEGFR‐1 [1]: does not affect EC adhesion
effect on EC adhesion to fibronectin ([2]; peptide 20 µg·mL^−1 during adhesion, 37 °C, 1 h, 20 µg·mL^−1 fibronectin coating, crystal violet, 540 nm, triplicate): does not affect EC adhesion

NITVT [Flt2‐5, Flt2‐11 peptide variant comprising the first five N‐terminal residues]
effect on NRP‐1/VEGFR‐1 (sVEGFR‐1) interaction [3]: inhibiting NRP‐1/sVEGFR‐1 interaction as well
effect on EC adhesion to sVEGFR‐1 [1]: same ability as the parent Flt2‐11 peptide to inhibit cell adhesion to; also recorded: able to significantly inhibit EC adhesion; also recorded: efficacy comparable to that of the parent eleven‐residue Flt2‐11 peptide
effect on EC migration towards sVEGFR‐1 [4]: same ability as the parent Flt2‐11 peptide to inhibit cell adhesion to, and migration towards, sVEGFR‐1; also recorded: migration towards, sVEGFR‐1 (Fig. 6C), to a similar extent as the Flt2‐11 peptide; also recorded: efficacy comparable to that of the parent eleven‐residue Flt2‐11 peptide

B1: Flt_(2‐11) peptide (peptide)
peptide: NITVTLKKFPL
notes: Unlabelled peptide, as co-injected in the SPR experiments; also called peptide Flt_(2‐11); source: synthetic peptide (Primm, Milan)
Ki [5]: 20 nM
